{
  "source": "PubChem BioAssay AID1259407",
  "about": "(Chemical Carcinogenesis Research Information System (CCRIS), 2018)",
  "test_system": "CCRIS mutagenicity, Ames/micronucleus/aberration tests",
  "test": "CCRIS mutagenicity studies",
  "key": {"[1]": {"conditions": "Test System: AMES SALMONELLA TYPHIMURIUM, Strain/Indicator: TA98, Metabolic Activation: NONE, Method: PREINCUBATION"}, "[2]": {"conditions": "Test System: AMES SALMONELLA TYPHIMURIUM, Strain/Indicator: TA100, Metabolic Activation: NONE, Method: PREINCUBATION"}, "[3]": {"conditions": "Test System: AMES SALMONELLA TYPHIMURIUM, Strain/Indicator: TA100, Metabolic Activation: NONE, Method: STANDARD PLATE"}, "[4]": {"conditions": "Test System: AMES SALMONELLA TYPHIMURIUM, Strain/Indicator: TA98, Metabolic Activation: NONE, Method: STANDARD PLATE"}},
  "note": "Active and inactive are the calls of the source. The rule behind the calls is not given here.",
  "data": [
    {"compound": "COc1ccc(C(=O)c2ccccc2O)c(O)c1", "values": [
      {"measurement": "mutagenic call", "setting": "Test System: AMES SALMONELLA TYPHIMURIUM, Strain/Indicator: TA98, Metabolic Activation: HAMSTER, LIVER, S-9, AROCLOR 1254 (10%), Method: PREINCUBATION", "result": "inactive; negative"},
      {"measurement": "mutagenic call", "setting": "[1]", "result": "inactive; negative"},
      {"measurement": "mutagenic call", "setting": "Test System: AMES SALMONELLA TYPHIMURIUM, Strain/Indicator: TA98, Metabolic Activation: RAT, LIVER, S-9, AROCLOR 1254 (10%), Method: PREINCUBATION", "result": "inactive; negative"},
      {"measurement": "mutagenic call", "setting": "Test System: AMES SALMONELLA TYPHIMURIUM, Strain/Indicator: TA100, Metabolic Activation: HAMSTER, LIVER, S-9, AROCLOR 1254 (10%), Method: PREINCUBATION", "result": "inactive; negative"},
      {"measurement": "mutagenic call", "setting": "[2]", "result": "inactive; negative"},
      {"measurement": "mutagenic call", "setting": "Test System: AMES SALMONELLA TYPHIMURIUM, Strain/Indicator: TA100, Metabolic Activation: RAT, LIVER, S-9, AROCLOR 1254 (10%), Method: PREINCUBATION", "result": "inactive; negative"},
      {"measurement": "mutagenic call", "setting": "Test System: AMES SALMONELLA TYPHIMURIUM, Strain/Indicator: TA1535, Metabolic Activation: HAMSTER, LIVER, S-9, AROCLOR 1254 (10%), Method: PREINCUBATION", "result": "inactive; negative"},
      {"measurement": "mutagenic call", "setting": "Test System: AMES SALMONELLA TYPHIMURIUM, Strain/Indicator: TA1535, Metabolic Activation: NONE, Method: PREINCUBATION", "result": "inactive; negative"},
      {"measurement": "mutagenic call", "setting": "Test System: AMES SALMONELLA TYPHIMURIUM, Strain/Indicator: TA1535, Metabolic Activation: RAT, LIVER, S-9, AROCLOR 1254 (10%), Method: PREINCUBATION", "result": "inactive; negative"},
      {"measurement": "mutagenic call", "setting": "Test System: AMES SALMONELLA TYPHIMURIUM, Strain/Indicator: TA1537, Metabolic Activation: HAMSTER, LIVER, S-9, AROCLOR 1254 (10%), Method: PREINCUBATION", "result": "active; positive"},
      {"measurement": "mutagenic call", "setting": "Test System: AMES SALMONELLA TYPHIMURIUM, Strain/Indicator: TA1537, Metabolic Activation: NONE, Method: PREINCUBATION", "result": "inactive; negative"},
      {"measurement": "mutagenic call", "setting": "Test System: AMES SALMONELLA TYPHIMURIUM, Strain/Indicator: TA1537, Metabolic Activation: RAT, LIVER, S-9, AROCLOR 1254 (10%), Method: PREINCUBATION", "result": "active; positive"}
    ]},
    {"compound": "Cc1cccc(C2CO2)c1", "note": "(stereo not drawn)", "values": [
      {"measurement": "mutagenic call", "setting": "Test System: E. COLI, Strain/Indicator: WP2 UVRA, Metabolic Activation: NONE, Method: STANDARD PLATE", "result": "active; positive"}
    ]},
    {"compound": "C=C1N(C)c2ccccc2C1(C)C", "values": [
      {"measurement": "mutagenic call", "setting": "Test System: MOUSE LYMPHOMA, Strain/Indicator: L5178Y (TK+/TK-), Metabolic Activation: NONE, Method: SUSPENSION/PLATE", "result": "inactive; negative. reevaluation of results: negative"},
      {"measurement": "mutagenic call", "setting": "Test System: MOUSE LYMPHOMA, Strain/Indicator: L5178Y (TK+/TK-), Metabolic Activation: RAT, LIVER, S-9, AROCLOR 1254, Method: SUSPENSION/PLATE", "result": "active; positive. reevaluation of results: positive"},
      {"measurement": "mutagenic call", "setting": "Test System: Mouse lymphoma, Strain/Indicator: L5178Y (tk+/tk-), Metabolic Activation: None, Method: Suspension/plate", "result": "inactive; negative"},
      {"measurement": "mutagenic call", "setting": "Test System: Mouse lymphoma, Strain/Indicator: L5178Y (tk+/tk-), Metabolic Activation: Rat, Liver, S-9, Aroclor 1254, Method: Suspension/plate", "result": "active; positive"}
    ]},
    {"compound": "O=[N+]([O-])c1ccc(OC2CO2)cc1", "note": "(stereo not drawn)", "values": [
      {"measurement": "mutagenic call", "setting": "[3]", "result": "active; positive"},
      {"measurement": "mutagenic call", "setting": "Test System: AMES SALMONELLA TYPHIMURIUM, Strain/Indicator: TA1535, Metabolic Activation: NONE, Method: STANDARD PLATE", "result": "active; positive"}
    ]},
    {"compound": "O=[N+]([O-])c1ccc2c(c1)oc1ccccc12", "values": [
      {"measurement": "mutagenic call", "setting": "Test System: AMES SALMONELLA TYPHIMURIUM, Strain/Indicator: TA98(1,8-DNP6), Metabolic Activation: NONE, Method: PREINCUBATION", "result": "active; positive"},
      {"measurement": "mutagenic call", "setting": "Test System: AMES SALMONELLA TYPHIMURIUM, Strain/Indicator: TA98(1,8-DNP6), Metabolic Activation: NONE, Method: SUSPENSION", "result": "active; positive"},
      {"measurement": "mutagenic call", "setting": "Test System: AMES SALMONELLA TYPHIMURIUM, Strain/Indicator: TA98(1,8-DNP6), Metabolic Activation: RAT, LIVER, S-9, PCB (5%), Method: PREINCUBATION", "result": "active; positive"},
      {"measurement": "mutagenic call", "setting": "Test System: AMES SALMONELLA TYPHIMURIUM, Strain/Indicator: TA98(NR), Metabolic Activation: NONE, Method: PREINCUBATION", "result": "active; positive"},
      {"measurement": "mutagenic call", "setting": "Test System: AMES SALMONELLA TYPHIMURIUM, Strain/Indicator: TA98(NR), Metabolic Activation: NONE, Method: SUSPENSION", "result": "active; positive"},
      {"measurement": "mutagenic call", "setting": "Test System: AMES SALMONELLA TYPHIMURIUM, Strain/Indicator: TA98(NR), Metabolic Activation: RAT, LIVER, S-9 (10%), Method: PREINCUBATION", "result": "active; positive"},
      {"measurement": "mutagenic call", "setting": "Test System: AMES SALMONELLA TYPHIMURIUM, Strain/Indicator: TA98(NR), Metabolic Activation: RAT, LIVER, S-9, 3-METHYLCHOLANTHRENE (10%), Method: PREINCUBATION", "result": "active; positive"},
      {"measurement": "mutagenic call", "setting": "Test System: AMES SALMONELLA TYPHIMURIUM, Strain/Indicator: TA98(NR), Metabolic Activation: RAT, LIVER, S-9, BETA-NAPHTHOFLAVONE (10%), Method: PREINCUBATION", "result": "active; positive"},
      {"measurement": "mutagenic call", "setting": "Test System: AMES SALMONELLA TYPHIMURIUM, Strain/Indicator: TA98(NR), Metabolic Activation: RAT, LIVER, S-9, PCB (5%), Method: PREINCUBATION", "result": "active; positive"},
      {"measurement": "mutagenic call", "setting": "Test System: AMES SALMONELLA TYPHIMURIUM, Strain/Indicator: TA98(NR), Metabolic Activation: RAT, LIVER, S-9, PCB (10%), Method: PREINCUBATION", "result": "active; positive"},
      {"measurement": "mutagenic call", "setting": "Test System: AMES SALMONELLA TYPHIMURIUM, Strain/Indicator: TA98(NR), Metabolic Activation: RAT, LIVER, S-9, PHENOBARBITAL (10%), Method: PREINCUBATION", "result": "active; positive"},
      {"measurement": "mutagenic call", "setting": "[1]", "result": "active; positive"},
      {"measurement": "mutagenic call", "setting": "[4]", "result": "active; positive"},
      {"measurement": "mutagenic call", "setting": "Test System: AMES SALMONELLA TYPHIMURIUM, Strain/Indicator: TA98, Metabolic Activation: NONE, Method: SUSPENSION", "result": "active; positive"},
      {"measurement": "mutagenic call", "setting": "Test System: AMES SALMONELLA TYPHIMURIUM, Strain/Indicator: TA98, Metabolic Activation: RAT, LIVER, S-9, PCB (5%), Method: PREINCUBATION", "result": "active; positive"},
      {"measurement": "mutagenic call", "setting": "Test System: AMES SALMONELLA TYPHIMURIUM, Strain/Indicator: TA98, Metabolic Activation: RAT, LIVER, S-9, PCB, Method: SUSPENSION", "result": "active; positive"},
      {"measurement": "mutagenic call", "setting": "Test System: AMES SALMONELLA TYPHIMURIUM, Strain/Indicator: TA98, Metabolic Activation: S-9, PHENOBARBITAL AND 5,6-BENZOFLAVONE, Method: STANDARD PLATE", "result": "active; positive"},
      {"measurement": "mutagenic call", "setting": "[2]", "result": "inactive; negative"},
      {"measurement": "mutagenic call", "setting": "[3]", "result": "active; positive"},
      {"measurement": "mutagenic call", "setting": "Test System: AMES SALMONELLA TYPHIMURIUM, Strain/Indicator: TA100, Metabolic Activation: NONE, Method: SUSPENSION", "result": "active; positive"},
      {"measurement": "mutagenic call", "setting": "Test System: AMES SALMONELLA TYPHIMURIUM, Strain/Indicator: TA100, Metabolic Activation: RAT, LIVER, S-9, PCB (5%), Method: PREINCUBATION", "result": "inactive; negative"},
      {"measurement": "mutagenic call", "setting": "Test System: AMES SALMONELLA TYPHIMURIUM, Strain/Indicator: TA100, Metabolic Activation: RAT, LIVER, S-9, PCB, Method: SUSPENSION", "result": "inactive; negative"},
      {"measurement": "mutagenic call", "setting": "Test System: AMES SALMONELLA TYPHIMURIUM, Strain/Indicator: TA100, Metabolic Activation: S-9, PHENOBARBITAL AND 5,6-BENZOFLAVONE, Method: STANDARD PLATE", "result": "active; positive"}
    ]},
    {"compound": "O=C(c1ccc(-c2ccccc2)cc1)C1OC1c1ccccc1", "note": "(stereo not drawn)", "values": [
      {"measurement": "mutagenic call", "setting": "[4]", "result": "inactive; negative"},
      {"measurement": "mutagenic call", "setting": "Test System: AMES SALMONELLA TYPHIMURIUM, Strain/Indicator: TA98, Metabolic Activation: RAT, LIVER, S-9, AROCLOR 1254, Method: STANDARD PLATE", "result": "inactive; negative"},
      {"measurement": "mutagenic call", "setting": "[3]", "result": "inactive; negative"},
      {"measurement": "mutagenic call", "setting": "Test System: AMES SALMONELLA TYPHIMURIUM, Strain/Indicator: TA100, Metabolic Activation: RAT, LIVER, S-9, AROCLOR 1254, Method: STANDARD PLATE", "result": "inactive; negative"}
    ]},
    {"compound": "[N-]=[N+]=NC[C@H]1O[C@H](O)[C@H](O)[C@H](O)[C@@H]1O", "values": [
      {"measurement": "mutagenic call", "setting": "[4]", "result": "inactive; negative"},
      {"measurement": "mutagenic call", "setting": "[3]", "result": "active; positive"}
    ]}
  ]
}
